# Data: article PMC9004346, “Development of small cyclic peptides targeting the CK2α/β interface” (Chemical Communications (Cambridge, England), 2022)
# *1 amine or outer side, *2 acyl side, *3 side chain or, on linkers, in order; H or OH if unused. Where a SMILES comes first, the peptide text is derived from it. Bridges are numbered along the chain shown (N, C = ends). [ ]: non-standard residue; d: D form. Trp(2-yl) = O=C([C@H](Cc1c([*:3])[nH]c2ccccc12)N[*:1])[*:2]; X1 = CN(CC(=O)O)c1nc(CC[*:1])cc(CC[*:2])n1; Dap(N3) = [N-]=[N+]=NC[C@H](N)C(=O)O; mXylylene = c1cc(C[*:1])cc(C[*:2])c1; CH2COCH2 = O=C(C[*:1])C[*:2]
# Tested on: not listed separately
# Test: MTT cell viability assay in HeLa cells
# Assay type: cell-based
# Conditions: human; HeLa cells, 48 h, 50 μM compound; ±standard deviation; read-out: Cell viability (%) 50 μM compound
# Experimental: HeLa cells were maintained in 5% CO2 in DMEM supplemented with 10% FBS, 2 mM L-glutamine, 100 U/mL penicillin and […] streptomycin, in an atmosphere containing 5% CO2.
# Cells were regularly passed and used for experiments within one month after thawing (10-15 […]
# 1.6.2 Cell viability assay
# Cell viability was assayed by 3-(4,5-dimethylthiazol-2-yl)-2,5-diphenyltetrazolium bromide (MTT) colorimetric assay. HeLa cells were plated on 96-well plates (20,000 cells per well in 100 μL). After 24 h, cells were treated with different concentrations of test compounds or vehicle alone (DMSO). One hour before the end of the incubations, 10 μL of MTT solution (5 mg/mL in PBS) were added to each well. Formazan crystals (proportional to the number of viable cells) were then dissolved by the addition of 20 μL/well of a pH 4.7 solution containing 20% (w:v) SDS, 50% (v:v) N,N-dimethylformamide, 2% (v:v) acetic acid, and 25 mM HCl, and quantified by recording the absorbance at 570 nm using an Infinite M200 PRO plate reader (TECAN, Life Sciences). […]
row,Molecule,"viability at 48 h, 50 µM [%]"
1,"O=C(O)c1ccc2c(c1)nc(Nc1cccc(Cl)c1)c1ccncc12 [CX-4945, reference compound]",29 ± 1

# Same assay, conditions: human; HeLa cells, 48 h, 100 μM compound; ±standard deviation; read-out: Cell viability (%) 100 μM compound
row,Molecule,"viability at 48 h, 100 µM [%]"
1,"O=C(O)c1ccc2c(c1)nc(Nc1cccc(Cl)c1)c1ccncc12 [CX-4945, reference compound]",21 ± 1

# Target: T1, CK2α (Homo sapiens, UniProt P68400)
# T1 construct: 571 nM CK2α_WT (residues 2-329); made in house
# T1 sequence (P68400 2-329): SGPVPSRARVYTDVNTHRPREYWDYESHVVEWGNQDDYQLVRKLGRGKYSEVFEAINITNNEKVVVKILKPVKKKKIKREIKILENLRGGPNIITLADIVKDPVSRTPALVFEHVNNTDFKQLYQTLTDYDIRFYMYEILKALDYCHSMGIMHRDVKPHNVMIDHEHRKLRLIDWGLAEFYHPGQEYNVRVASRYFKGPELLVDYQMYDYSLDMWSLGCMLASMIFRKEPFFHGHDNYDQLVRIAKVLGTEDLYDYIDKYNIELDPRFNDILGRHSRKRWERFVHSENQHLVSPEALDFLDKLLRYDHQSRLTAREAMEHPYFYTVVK
# Test: Fluorescence polarisation (FP) assay: displacement of a CK2β-like fluorescent probe from CK2α
# Assay type: binding
# Conditions: CK2α_WT (residues 2-329), fluorescein-labelled CK2β-based peptide probe, ±SEM
# From the text: To assess the ability of the synthesised linear peptides to displace a CK2β-like fluorescent probe from CK2α, a fluorescence polarisation (FP) assay was used (Table 1, ESI 1.3.2 and Fig. S2, ESI ^†). […]
# 1.5 Biophysical experiments
# 1.5.1 Protein expression and purification
# Three constructs of CK2α were used in this study. For FP assays, CK2α_WT was used (residues 2-329). […]
# These constructs were cloned, expressed, and purified as previously described.19 1.5.2 Fluorescence polarisation
# IC50’s were determined using a PHERAstar FS plate reader (BMG labtech). The fluorescein probe was measured using 485 nm excitation and 530 nm emission. The fluorescein probe was covalently linked to the N-terminus of the linear CK2β-based peptide RLYGFKIHPMAYQLQ. IC50’s were measured using 500, 167, 16.7, 8.33 and 0 μM of the test peptide at a constant concentration of DMSO. P7C8, P8C9, P+L and P+ were tested at concentrations of 50.0, 16.7, 1.67, 0.833 and 0 μM due to their higher potencies. The experiments were performed in a Corning 384-well plate with final concentrations of 571 nM CK2α_WT (residues 2-329), 7.4 μM fluorescent peptide (fluorescein probe was covalently linked to the N-terminus of the linear CK2β-based peptide RLYGFKIHPMAYQLQ), 200 mM NaCl, 40mM TRIS, 20 mM MgCl2 and pH 7.5. The plates were read after a 45 min incubation period. […]
row,Molecule,IC50 [µM]
1,CC(=O)N[C@H]1CSCc2cccc(c2)CSC[C@@H](C(N)=O)NC(=O)[C@H](CCCCN)NC(=O)[C@H](Cc2ccccc2)NC(=O)CNC(=O)[C@H](Cc2ccc(O)cc2)NC(=O)[C@H](CC(C)C)NC(=O)[C@H](CCCNC(=N)N)NC1=O [Peptide P5C5] (Ac-CRLYGFKC-NH2; linker 1-8 via mXylylene),28.9 ± 1.9
2,CC(=O)N[C@H]1CSCC(=O)CSC[C@@H](C(N)=O)NC(=O)[C@H](CCCCN)NC(=O)[C@H](Cc2ccccc2)NC(=O)CNC(=O)[C@H](Cc2ccc(O)cc2)NC(=O)[C@H](CC(C)C)NC(=O)[C@H](CCCNC(=N)N)NC1=O [Peptide P5C4] (Ac-CRLYGFKC-NH2; linker 1-8 via CH2COCH2),54.6 ± 11.2
3,"CC(=O)NCC(=O)N[C@@H](CN=[N+]=[N-])C(=O)N[C@@H](CCCNC(=N)N)C(=O)N[C@@H](CC(C)C)C(=O)N[C@@H](Cc1ccc(O)cc1)C(=O)NCC(=O)N[C@@H](Cc1ccccc1)C(=O)N[C@@H](CCCCN)C(=O)N[C@@H](Cc1c[nH]c2ccccc12)C(=O)N[C@@H](Cc1c[nH]cn1)C(=O)N[C@@H](CN=[N+]=[N-])C(=O)NCC(=O)NCC(N)=O [P+L, reference compound] (Ac-G[Dap(N3)]RLYGFKWH[Dap(N3)]GG-NH2)",11.7
4,"Ac-RLYGFKW-NH2 [Peptide P3, RLYGFKW]",22.5 ± 2.4
5,CC(=O)N[C@H]1CSCCc2cc(nc(N(C)CC(=O)O)n2)CCSC[C@@H](C(N)=O)NC(=O)[C@H](CCCCN)NC(=O)[C@H](Cc2ccccc2)NC(=O)CNC(=O)[C@H](Cc2ccc(O)cc2)NC(=O)[C@H](CC(C)C)NC(=O)[C@H](CCCNC(=N)N)NC1=O [Peptide P5C7] (Ac-CRLYGFKC-NH2; linker 1-8 via X1),40 ± 4.7
6,"CC(=O)N[C@H]1CSc2[nH]c3ccccc3c2C[C@@H](C(N)=O)NC(=O)[C@H](CCCCN)NC(=O)[C@H](Cc2ccccc2)NC(=O)CNC(=O)[C@H](Cc2ccc(O)cc2)NC(=O)[C@H](CC(C)C)NC(=O)[C@H](CCCNC(=N)N)NC1=O [Peptide P7C8, CC8RLYGFKWC8] (Ac-CRLYGFK[Trp(2-yl)]-NH2; thioether 1-8)",15.6 ± 5.1
7,"Ac-RLYGFKWH-NH2 [Peptide P4, RLYGFKWH]",16.7 ± 2.3
8,"CC(=O)NCC(=O)N[C@H]1Cn2cc(nn2)-c2cc(C(=O)O)cc(c2)-c2cn(nn2)C[C@@H](C(=O)NCC(=O)NCC(N)=O)NC(=O)[C@H](Cc2c[nH]cn2)NC(=O)[C@H](Cc2c[nH]c3ccccc23)NC(=O)[C@H](CCCCN)NC(=O)[C@H](Cc2ccccc2)NC(=O)CNC(=O)[C@H](Cc2ccc(O)cc2)NC(=O)[C@H](CC(C)C)NC(=O)[C@H](CCCNC(=N)N)NC1=O [P+, GXC1RLYGFKWHXC1GG, reference compound]",8.7 ± 4.2
9,"Ac-RLYGFK-NH2 [Peptide P1, RLYGFK]",> 500
10,"Ac-LYGFKW-NH2 [Peptide P2, LYGFKW]",137 ± 25.8
